Test results as given in patent publication US20060019892A1 (Florida Atlantic University, priority 2003, published 2006).

How the values were obtained:
[1] = tested on: primary cultures of rat neonatal cortex (cultured cortical neurons); type: cell-based
nAChR = details: cited from earlier work

Substance: A-O-A-N-S-V*-W-S [gla-1]
- effect on Ca^++ flux in the cells [1]: reducing Ca^++ flux
- modulation of Ca^++ flux in cultured neurons from rat cortex [1]: modulate Ca^++ flux

Substance: HOCCLYGK-CRRYOGCSSASASCCQR [ψPIIIE]
- nAChR activity annotation (nAChR): non comp. nAChR

Substance: RDOCCYHPTCNMSNPQIC* [EI]
- Target: nAChR (subtype) (nAChR): α1γ = α1δβ2 musc.
